# From patent US11370798B2 (Vertex Pharmaceuticals Incorporated, priority 2012, dated 2022)
# Tested on: HCT116 colorectal cancer cells
# Test: Cisplatin sensitization assay (96 h cell viability MTS);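 further: Test-compound concentration that lowers the Cisplatin IC50 by a set fold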
# Assay type: cell-based
# Conditions: compound and Cisplatin added simultaneously, Cisplatin sensitization value
# Summary of the method: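 Compound and cisplatin added together as a full matrix of 2-fold serial dilutions from a top final concentration of 10 μM; cells incubated 96 h at 37° C, 5% CO2. Viability then read by MTS after 1 h further incubation; sensitization value reported in μM bins.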
row,Compound,Cisplatin Sensitization Assay
1,"Nc1nn2cc(F)cnc2c1C(=O)Nc1cncc(F)c1N1CCN2C(=O)CC[C@@H]2C1 [I-N-182, (R)-2-amino-6-fluoro-N-(5-fluoro-4-(6-oxohexahydropyrrolo[1,2-a]pyrazin-2(1H)-yl)pyridin-3-yl)pyrazolo[1,5-a]pyrimidine-3-carboxamide]",++ (Cisplatin sensitization value>0.02 μM but <0.2 μM)
2,"CN1CCOC2(CCN(c3ccncc3NC(=O)c3c(N)nn4cc(F)cnc34)CC2)C1 [I-N-183, 2-amino-6-fluoro-N-(4-(4-methyl-1-oxa-4,9-diazaspiro[5.5]undecan-9-yl)pyridin-3-yl)pyrazolo[1,5-a]pyrimidine-3-carboxamide]",+++ (Cisplatin sensitization value of <0.02 μM)
3,"Nc1nn2cc(F)cnc2c1C(=O)Nc1cncc(F)c1N1CCC(c2nccs2)CC1 [I-N-184, 2-amino-6-fluoro-N-(5-fluoro-4-(4-(thiazol-2-yl)piperidin-1-yl)pyridin-3-yl)pyrazolo[1,5-a]pyrimidine-3-carboxamide]",++ (Cisplatin sensitization value>0.02 μM but <0.2 μM)
4,"CCN1CCCC1C(=O)N1CCN(c2c(F)cncc2NC(=O)c2c(N)nn3cc(F)cnc23)CC1 (stereo not shown) [I-N-185, 2-amino-N-(4-(4-(1-ethylpyrrolidine-2-carbonyl)piperazin-1-yl)-5-fluoropyridin-3-yl)-6-fluoropyrazolo[1,5-a]pyrimidine-3-carboxamide]",++ (Cisplatin sensitization value>0.02 μM but <0.2 μM)
5,"Nc1nn2cc(F)cnc2c1C(=O)Nc1cncc(F)c1N1CCN2C(=O)CC[C@@H]2C1 [I-N-186, (R)-2-amino-6-fluoro-N-(5-fluoro-4-(6-oxohexahydropyrrolo[1,2-a]pyrazin-2(1H)-yl)pyridin-3-yl)pyrazolo[1,5-a]pyrimidine-3-carboxamide]",+++ (Cisplatin sensitization value of <0.02 μM)
6,"Nc1nn2cc(F)cnc2c1C(=O)Nc1cncc(F)c1N1CCN(C(=O)CN2CCCC2)CC1 [I-N-187, 2-amino-6-fluoro-N-(5-fluoro-4-(4-(2-(pyrrolidin-1-yl)acetyl)piperazin-1-yl)pyridin-3-yl)pyrazolo[1,5-a]pyrimidine-3-carboxamide]",+++ (Cisplatin sensitization value of <0.02 μM)
7,"CN1CCC(S(=O)(=O)N2CCN(c3ccncc3NC(=O)c3c(N)nn4cc(F)cnc34)CC2)CC1 [I-N-188, 2-amino-6-fluoro-N-(4-(4-((1-methylpiperidin-4-yl)sulfonyl)piperazin-1-yl)pyridin-3-yl)pyrazolo[1,5-a]pyrimidine-3-carboxamide]",+++ (Cisplatin sensitization value of <0.02 μM)
8,"Nc1nn2cc(F)cnc2c1C(=O)Nc1cncc(F)c1N1CCC(N2CCOCC2)CC1 [I-N-189, 2-amino-6-fluoro-N-(5-fluoro-4-(4-morpholinopiperidin-1-yl)pyridin-3-yl)pyrazolo[1,5-a]pyrimidine-3-carboxamide]",+++ (Cisplatin sensitization value of <0.02 μM)
9,"CS(=O)(=O)C1CCN(c2ccncc2NC(=O)c2c(N)nn3cc(F)cnc23)CC1 [I-N-190, 2-amino-6-fluoro-N-(4-(4-(methylsulfonyl)piperidin-1-yl)pyridin-3-yl)pyrazolo[1,5-a]pyrimidine-3-carboxamide]",+++ (Cisplatin sensitization value of <0.02 μM)
10,"CN1CCN(C(=O)C2CCN(c3c(F)cncc3NC(=O)c3c(N)nn4cc(F)cnc34)C2)CC1 (stereo not shown) [I-N-191, 2-amino-6-fluoro-N-(5-fluoro-4-(3-(4-methylpiperazine-1-carbonyl)pyrrolidin-1-yl)pyridin-3-yl)pyrazolo[1,5-a]pyrimidine-3-carboxamide]",+ (Cisplatin sensitization value>0.2 μM but <5 μM)
11,"CN1CCN(CC2CCN(c3c(F)cncc3NC(=O)c3c(N)nn4cc(C5(C#N)CC5)cnc34)CC2)CC1 [I-N-192, 2-amino-6-(1-cyanocyclopropyl)-N-(5-fluoro-4-(4-((4-methylpiperazin-1-yl)methyl)piperidin-1-yl)pyridin-3-yl)pyrazolo[1,5-a]pyrimidine-3-carboxamide]",+++ (Cisplatin sensitization value of <0.02 μM)
12,"CN1CCN(CC2CCN(c3c(F)cncc3NC(=O)c3c(N)nn4cc(F)cnc34)CC2)C(=O)C1 [I-N-193, 2-amino-6-fluoro-N-(5-fluoro-4-(4-((4-methyl-2-oxopiperazin-1-yl)methyl)piperidin-1-yl)pyridin-3-yl)pyrazolo[1,5-a]pyrimidine-3-carboxamide]",+++ (Cisplatin sensitization value of <0.02 μM)
13,CN1CC(C(=O)N2CCN(c3c(F)cncc3NC(=O)c3c(N)nn4cc(F)cnc34)CC2)C1 [I-N-194],+++ (Cisplatin sensitization value of <0.02 μM)
14,"Nc1nn2cc(F)cnc2c1C(=O)Nc1cnccc1N1CCN(S(=O)(=O)C2COC2)CC1 [I-N-195, 2-amino-6-fluoro-N-(4-(4-(oxetan-3-ylsulfonyl)piperazin-1-yl)pyridin-3-yl)pyrazolo[1,5-a]pyrimidine-3-carboxamide]",+++ (Cisplatin sensitization value of <0.02 μM)
15,"Nc1nn2cc(F)cnc2c1C(=O)Nc1cnccc1N1CCC(S(=O)(=O)N2CCN3CCC2CC3)CC1 [I-N-196, N-(4-(4-(1,4-diazabicyclo[3.2.2]nonan-4-ylsulfonyl)piperidin-1-yl)pyridin-3-yl)-2-amino-6-fluoropyrazolo[1,5-a]pyrimidine-3-carboxamide]",+++ (Cisplatin sensitization value of <0.02 μM)
16,"Nc1nn2cc(F)cnc2c1C(=O)Nc1cnccc1N1CCC(CN2CCC(F)(F)C2)CC1 [I-N-197, 2-amino-N-(4-(4-((3,3-difluoropyrrolidin-1-yl)methyl)piperidin-1-yl)pyridin-3-yl)-6-fluoropyrazolo[1,5-a]pyrimidine-3-carboxamide]",+++ (Cisplatin sensitization value of <0.02 μM)
17,"CN1CCC[C@H]1C(=O)N1CCN(c2ccncc2NC(=O)c2c(N)nn3cc(F)cnc23)CC1 [I-N-198, (S)-2-amino-6-fluoro-N-(4-(4-(1-methylpyrrolidine-2-carbonyl)piperazin-1-yl)pyridin-3-yl)pyrazolo[1,5-a]pyrimidine-3-carboxamide]",++ (Cisplatin sensitization value>0.02 μM but <0.2 μM)
18,"CN1CCC[C@@H]1C(=O)N1CCN(c2ccncc2NC(=O)c2c(N)nn3cc(F)cnc23)CC1 [I-N-199, (R)-2-amino-6-fluoro-N-(4-(4-(1-methylpyrrolidine-2-carbonyl)piperazin-1-yl)pyridin-3-yl)pyrazolo[1,5-a]pyrimidine-3-carboxamide]",+++ (Cisplatin sensitization value of <0.02 μM)
19,"Nc1nn2cc(F)cnc2c1C(=O)Nc1cnccc1N1CCC(S(=O)(=O)C2COC2)CC1 [I-N-200, 2-amino-6-fluoro-N-(4-(4-(oxetan-3-ylsulfonyl)piperidin-1-yl)pyridin-3-yl)pyrazolo[1,5-a]pyrimidine-3-carboxamide]",+++ (Cisplatin sensitization value of <0.02 μM)
20,Nc1nn2cc(F)cnc2c1C(=O)Nc1cncc(F)c1N1CCN(S(=O)(=O)C2COC2)CC1 [I-N-201],+++ (Cisplatin sensitization value of <0.02 μM)
21,"Nc1nn2cc(F)cnc2c1C(=O)Nc1cnccc1-n1ccnc1C1CC1 [I-N-202, 2-amino-N-(4-(2-cyclopropyl-1H-imidazol-1-yl)pyridin-3-yl)-6-fluoropyrazolo[1,5-a]pyrimidine-3-carboxamide]",+++ (Cisplatin sensitization value of <0.02 μM)
22,"Nc1nn2cc(F)cnc2c1C(=O)Nc1cncc(F)c1N1CCN(C(=O)C2CC3CCCCN3C2)CC1 (stereo not shown) [I-N-203, 2-amino-6-fluoro-N-(5-fluoro-4-(4-(octahydroindolizine-2-carbonyl)piperazin-1-yl)pyridin-3-yl)pyrazolo[1,5-a]pyrimidine-3-carboxamide]",+++ (Cisplatin sensitization value of <0.02 μM)
23,"CC(C)N1CCCC1C(=O)N1CCN(c2c(F)cncc2NC(=O)c2c(N)nn3cc(F)cnc23)CC1 (stereo not shown) [I-N-205, 2-amino-6-fluoro-N-(5-fluoro-4-(4-(1-isopropylpyrrolidine-2-carbonyl)piperazin-1-yl)pyridin-3-yl)pyrazolo[1,5-a]pyrimidine-3-carboxamide]",++ (Cisplatin sensitization value>0.02 μM but <0.2 μM)
24,"CC(C)N1CCC(C(=O)N2CCN(c3c(F)cncc3NC(=O)c3c(N)nn4cc(F)cnc34)CC2)C1 (stereo not shown) [I-N-206, 2-amino-6-fluoro-N-(5-fluoro-4-(4-(1-isopropylpyrrolidine-3-carbonyl)piperazin-1-yl)pyridin-3-yl)pyrazolo[1,5-a]pyrimidine-3-carboxamide]",+++ (Cisplatin sensitization value of <0.02 μM)
25,"COCCS(=O)(=O)C1CCN(c2ccncc2NC(=O)c2c(N)nn3cc(F)cnc23)CC1 [I-N-208, 2-amino-6-fluoro-N-(4-(4-((2-methoxyethyl)sulfonyl)piperidin-1-yl)pyridin-3-yl)pyrazolo[1,5-a]pyrimidine-3-carboxamide]",+++ (Cisplatin sensitization value of <0.02 μM)
26,"CN1CCN(c2ccncc2NC(=O)c2c(N)nn3cc(F)cnc23)CC1=O [I-N-209, 2-amino-6-fluoro-N-(4-(4-methyl-3-oxopiperazin-1-yl)pyridin-3-yl)pyrazolo[1,5-a]pyrimidine-3-carboxamide]",+++ (Cisplatin sensitization value of <0.02 μM)
27,"Nc1nn2cc(F)cnc2c1C(=O)Nc1cnccc1N1CCS(=O)(=O)CC1 [I-N-210, 2-amino-N-(4-(1,1-dioxidothiomorpholino)pyridin-3-yl)-6-fluoropyrazolo[1,5-a]pyrimidine-3-carboxamide]",+++ (Cisplatin sensitization value of <0.02 μM)
28,"Nc1nn2cc(F)cnc2c1C(=O)Nc1cncc(F)c1N1CCN(C(=O)C2CCN(C3COC3)CC2)CC1 [I-N-211, 2-amino-6-fluoro-N-(5-fluoro-4-(4-(1-(oxetan-3-yl)piperidine-4-carbonyl)piperazin-1-yl)pyridin-3-yl)pyrazolo[1,5-a]pyrimidine-3-carboxamide]",++ (Cisplatin sensitization value>0.02 μM but <0.2 μM)
